Measured values taken from ChEMBL document CHEMBL5214922, “Melphalan: Recent insights on synthetic, analytical and medicinal aspects” (Eur J Med Chem, 2022).
≈ marks a conversion by molar mass, not a printed value. Non-standard residues stand in square brackets, D forms with d. Residues, ends and D or L forms follow the SMILES beside them. ξ: configuration not given here. *: point of attachment. ξPhe(4-N(CH2CH2Cl)2) = NC(Cc1ccc(N(CCCl)CCCl)cc1)C(=O)O; X1 = O=P(O)(O)C(CN*)P(=O)(O)O

What was measured:
MCF7 [1] = assay: Cytotoxicity against human MCF7 cells assessed as cell growth inhibition incubated for 48 hrs by AlamarBlue assay; assay type: functional, cell-based; conditions: MCF7, 48 h
[2] = Cytotoxicity against CHO cells assessed as cell growth inhibition incubated for 48 hrs by AlamarBlue assay; assay type: toxicity, cell-based, Cricetulus griseus; conditions: Chinese hamster
[3] = Retention time of the compound by HPLC analysis; assay type: physicochemical
[4] = Biodistribution in mouse CCRF S-180 tumor cells xenografted in ICR mouse measured after 120 mins; assay type: ADME, organism-based; conditions: read-out: Drug uptake
K562 = assay: Cytotoxicity against human K562 cells assessed as cell growth inhibition incubated for 24 hrs by MTT assay; assay type: functional, cell-based; conditions: K562, 24 h
SK-OV-3 = assay: Cytotoxicity against human SK-OV-3 cells assessed as inhibition of cell proliferation incubated for 24 hrs by MTT assay; assay type: functional, cell-based; conditions: SK-OV-3, 24 h
[5] = Biodistribution in mouse CCRF S-180 tumor cells xenografted in ICR mouse measured after 240 mins; assay type: ADME, organism-based; conditions: read-out: Drug uptake
HT-29 = assay: Cytotoxicity against human HT-29 cells assessed as cell growth inhibition measured after 24 hrs by MTT assay; assay type: functional, cell-based; conditions: HT-29, 24 h
H-EMC-SS = assay: Cytotoxicity against human H-EMC-SS cells assessed as cell growth inhibition incubated for 72 hrs by resazurin reduction method; assay type: functional, cell-based
SAOS-2 [6] = assay: Cytotoxicity against human SAOS-2 cells assessed as cell growth inhibition incubated for 72 hrs by resazurin reduction method; assay type: functional, cell-based; conditions: SAOS-2, 72 h
MCF7 [7] = assay: Cytotoxicity against human MCF7 cells assessed as cell growth inhibition incubated for 24 hrs by MTT assay; assay type: functional, cell-based; conditions: MCF7, 24 h
MDA-MB-231 [8] = assay: Inhibition of DNA synthesis in human MDA-MB-231 cells at 15 uM incubated upto 72 hrs by [3H]thymidine incorporation assay relative to control; assay type: functional
MDA-MB-231 [9] = assay: Cytotoxicity against human MDA-MB-231 cells assessed as reduction in cell viability at 15 uM incubated for 24 hrs by MTT assay relative to control; assay type: functional
SAOS-2 [10] = assay: Cytotoxicity against human SAOS-2 cells assessed as cell growth inhibition; assay type: functional, cell-based
MC3T3-E1 = assay: Cytotoxicity against mouse MC3T3-E1 cells assessed as cell growth inhibition; assay type: functional, cell-based
U2OS = assay: Cytotoxicity against human U2OS cells assessed as cell growth inhibition; assay type: functional, cell-based
[11] = Prodrug conversion assessed as drug excretion measured after 6 days by HPLC analysis; assay type: ADME; conditions: 144 h; time 6 day
[12] = target: 72 kDa type IV collagenase (Homo sapiens, UniProt P08253); assay: Prodrug conversion assessed as MMP-2 (unknown origin)-mediated drug release by measuring half life by HPLC analysis; assay type: ADME
Lymphoma cell line [13] = assay: Cytotoxicity against patient-derived human lymphoma cells assessed as cell growth inhibition incubated for 72 hrs by FMCA assay; assay type: functional, cell-based
Lymphoma cell line [14] = assay: Potency index, ratio of Melphalan IC50 to test compound IC50 for cytotoxicity against patient-derived human lymphoma cells assessed as cell growth inhibition incubated for 72 hrs by FMCA assay; assay type: functional
[15] = Plasma protein binding in human; assay type: ADME
[16] = Plasma protein binding in human by ultrafiltration method; assay type: ADME; conditions: read-out: PPB (converted)
[17] = Plasma protein binding in human assessed as unbound fraction; assay type: ADME

Sequence of 72 kDa type IV collagenase (P08253 whole entry): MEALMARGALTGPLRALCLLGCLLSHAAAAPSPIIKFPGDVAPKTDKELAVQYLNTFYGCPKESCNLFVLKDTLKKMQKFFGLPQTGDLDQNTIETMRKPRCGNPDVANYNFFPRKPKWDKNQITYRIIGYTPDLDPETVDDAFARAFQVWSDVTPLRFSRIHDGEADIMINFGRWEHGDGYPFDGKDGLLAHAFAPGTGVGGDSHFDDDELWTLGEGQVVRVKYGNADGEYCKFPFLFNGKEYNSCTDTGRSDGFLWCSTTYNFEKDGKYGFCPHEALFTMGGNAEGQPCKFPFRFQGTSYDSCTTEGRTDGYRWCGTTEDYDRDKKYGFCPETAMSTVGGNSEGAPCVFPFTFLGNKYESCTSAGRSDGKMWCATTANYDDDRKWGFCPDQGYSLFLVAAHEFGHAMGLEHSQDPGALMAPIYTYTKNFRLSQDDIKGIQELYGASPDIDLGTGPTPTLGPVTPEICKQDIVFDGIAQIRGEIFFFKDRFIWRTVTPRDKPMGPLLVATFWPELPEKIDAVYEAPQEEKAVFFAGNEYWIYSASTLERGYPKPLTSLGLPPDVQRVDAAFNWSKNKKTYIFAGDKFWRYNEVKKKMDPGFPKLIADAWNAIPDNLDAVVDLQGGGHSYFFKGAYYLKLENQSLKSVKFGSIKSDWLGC

C=C1C(=O)O[C@@H]2C3O[C@]3(C)CC/C=C(\C)CC[C@@H]12 (stereo partly drawn)
IC50 (MCF7 [1]): > 20 µM

C/C1=C\CC[C@@]2(C)O[C@H]2[C@H]2OC(=O)C(CNc3ccn(C4OC(CO)[C@H](O)[C@@H]4O)c(=O)n3)[C@@H]2CC1 (stereo partly drawn)
IC50 at 48 h [2]: 1.74 µM

C/C1=C\CC[C@@]2(C)O[C@H]2[C@H]2OC(=O)C(CNC(Cc3ccc(N(CCCl)CCCl)cc3)C(=O)O)[C@@H]2CC1 (stereo partly drawn)
Retention_time [3]: 14.5 min | tissue uptake at 2 h [4]: 1.63 %ID/g

CC1(C)CC(NC(=O)C(N)Cc2ccc(N(CCCl)CCCl)cc2)CC(C)(C)N1[O] (stereo not drawn)
IC50 (K562): 36.3 µM

NC1=NC2N=CC(CNc3ccc(C(=O)NCC(CCC(=O)NCC(=O)NCC(=O)NC(Cc4ccc(N(CCCl)CCCl)cc4)C(=O)O)C(=O)NCC(=O)NCC(=O)NC(Cc4ccccc4)C(=O)O)cc3)N=C2C(=O)N1 (stereo not drawn)
IC50 (SK-OV-3): 4.1 µg/mL (≈ 3.66 µM)

CN(C)c1ccc(/C=N\Nc2ccc(CN[C@@H](Cc3ccc(N(CCCl)CCCl)cc3)C(=O)O)cc2)cc1
tissue uptake at 4 h [5]: 0.98 %ID/g

CCOC(=O)CNC(=O)[C@H](Cc1ccc(N(CCCl)CCCl)cc1)NC(=O)[C@@H](N)[C@@H](C)CC
IC50 (HT-29): 40 µM

C[N+](C)(C)CCCNC(=O)[C@@H](N)Cc1ccc(N(CCCl)CCCl)cc1
IC50 (H-EMC-SS): 14 µM | IC50 (SAOS-2 [6]): 37.5 µM

O=C(O)CN(CCN(CC(=O)O)CC(=O)O)CCN(CC(=O)O)CC(=O)N[C@@H](Cc1ccc(N(CCCl)CCCl)cc1)C(=O)O
Retention_time [3]: 10.72 min | tissue uptake at 2 h [4]: 1.03 %ID/g

COC(=O)C(Cc1ccc(N(CCCl)CCCl)cc1)NC(=O)c1ccc(-c2ccc(C(=N)NC(C)C)cc2)o1 (stereo not drawn)
IC50 (MCF7 [7]): 23 µM

O=C(O)C(Cc1ccc(N(CCCl)CCCl)cc1)NCC(=O)N1CCCC1C(=O)O (stereo not drawn)
inhibition at 15 µM (MDA-MB-231 [8]): 30% | inhibition at 15 µM (MDA-MB-231 [9]): 55%

CC(C)C[C@H](NC(=O)CNC(=O)[C@H](CC(C)C)NC(=O)[C@@H]1CCCN1C(=O)C(N)Cc1ccc(N(CCCl)CCCl)cc1)C(=O)N[C@@H](C)C(=O)NCC(=O)NCC(P(=O)(O)O)P(=O)(O)O (stereo partly drawn) (H-[ξPhe(4-N(CH2CH2Cl)2)]PLGLAG-X1)
IC50 (SAOS-2 [10]): 0.79 µM | IC50 (MC3T3-E1): 0.79 µM | IC50 (U2OS): 0.79 µM | Drug excretion [11]: 75% | t1/2 [12]: 1.25 h

Nc1ccn([C@@H]2O[C@H](CO)[C@@H](O)[C@@H]2O)c(=O)n1 [CYTARABINE]
IC50 (MCF7 [1]): > 20 µM

CCOC(=O)[C@H](Cc1ccc(F)cc1)NC(=O)[C@@H](N)Cc1ccc(N(CCCl)CCCl)cc1 [MELPHALAN FLUFENAMIDE]
IC50 (Lymphoma cell line [13]): 0.011 µM | Ratio IC50 (Lymphoma cell line [14]): 49

N[C@@H](Cc1ccc(N(CCCl)CCCl)cc1)C(=O)O [MELPHALAN]
IC50 (SAOS-2 [10]): 0.68 µM | PPB [15]: 40 µg/mL | IC50 (MCF7 [1]): > 20 µM | fraction unbound [16]: 0.31 | IC50 (MC3T3-E1): 0.68 µM | IC50 (U2OS): 0.68 µM | Cp(f) [17]: 2500 ng/mL | IC50 (MCF7 [7]): 77 µM | IC50 (K562): 65.7 µM | inhibition at 15 µM (MDA-MB-231 [9]): 40%
